Legend:
[1] = Solvent extraction of aqueous crude chlorophthalic acid solution: distribution coefficient K and selectivity beta of chlorophthalides; format: physicochemical; parameters: key to K values: K = chlorophthalide mass fraction organic phase / aqueous phase; key to beta values: beta = (phthalide/acid wt fraction, organic) ÷ (same ratio, water)
Source text: In one embodiment the efficacy of a solvent extraction may be measured by the distribution coefficient, K, which is the mole fraction of specified solute in the organic solvent phase compared to the mole fraction of specified solute in the aqueous phase. In some particular embodiments an organic solvent is employed such that the value of the distribution coefficient, K, for phthalide in a product mixture comprising at least one phthalic acid is greater than 1. In other particular embodiments an organic solvent is employed such that the value of the distribution coefficient, K, for chlorophthalide in a product mixture comprising at least one chlorophthalic acid is greater than 1. In various particular embodiments an organic solvent is employed such that the value of the distribution coefficient, K, for chlorophthalide is in one embodiment in a range of between about 1.1 and about 5, and in another embodiment in a range of between about 1.1 and about 4. In a particular embodiment the distribution coefficient is measured for 4-chlorophthalide with water and various organic solvents such as toluene and xylene.
Another factor for measuring the efficacy of a solvent extraction is the selectivity factor, β, which compares the ratio of two components of interest in one phase to the ratio of the same two components in the other phase. In a particular embodiment the selectivity factor is measured for 4-chlorophthalide in relation to chlorophthalic acids in both water and organic solvent.
A 35 wt. % solution of crude chlorophthalic acid in water was prepared by adding appropriate amounts of 4- and 3-chlorophthalic anhydride (70/30 isomer ratio) along with a mixture of about 3 wt. % (based on crude chlorophthalic anhydride) of synthetic 4- and 7-chlorophthalide (produced by reduction of 3-chlorophthalic anhydride). […] A number of vials were prepared each containing 5 milliliters (ml.) of an aqueous phase comprising a certain concentration of crude chlorophthalic acid (5 wt. % to 35 wt. %, based on the weight of the entire aqueous phase and, optionally, acetic acid (0 wt. % to 36 wt. %, based on the weight of the entire aqueous phase). Each vial was then treated with 5 ml. of either toluene, o-dichlorobenzene (ODCB), or ortho-xylene. The vials were then shaken vigorously in a mechanical shaker for 50 minutes at a specified temperature (22° C., 42° C., or 60° C.). The phases were allowed to separate over several hours (actual phase separation occurred much quicker than this) and then each phase was sampled using a pipette. No stable emulsions were observed under the conditions which were examined. The organic phase was analyzed directly by GC (using biphenyl internal standard, following silylation of the product mixture), while for the aqueous phase, water was evaporated and solid residue was redissolved in organic solvent before GC analysis. The analytical data were used to calculate an equilibrium constant, K, which represented the ratio of chlorophthalides mass fraction in the organic phase to that in the aqueous phase. The analytical data were also used to calculate a selectivity constant, beta, which represented the quotient of [(wt. fraction of chlorophthalides in xylene)/(wt fraction of chlorophthalic acids in xylene)] divided by the quotient of [(wt fraction of chlorophthalides in water)/(wt fraction of chlorophthalic acids in water)]. The data in Table 1 show results of extractions performed at 22° C. with no acetic acid present.
The Procedure of Example 1 was repeated except that extractions were performed at 22 wt. % initial chlorophthalic acid concentration at 22° C. in the presence of different levels of acetic acid.
The procedure of Example 1 was repeated except that extractions were performed at different wt. % initial chlorophthalic acid concentration at 60° C. with no acetic acid present. […]

[2] = as above; format: physicochemical; parameters: key to K values: K = chlorophthalide mass fraction organic phase / aqueous phase; key to beta values: beta = (phthalide/acid wt fraction, organic) ÷ (same ratio, water); details: 22 wt.% chlorophthalic acid, 60° C.
[3] = ODCB/water, 9 wt.% acetic acid in initial aqueous phase, 22 wt.% chlorophthalic acid, 22° C.
[4] = ODCB/water, 10 wt.% acetic acid in initial aqueous phase, 22 wt.% chlorophthalic acid, 60° C.
[5] = ODCB/water, 12 wt.% chlorophthalic acid in aqueous phase, 22° C., no acetic acid
[6] = ODCB/water, 17 wt.% acetic acid in initial aqueous phase, 22 wt.% chlorophthalic acid, 22° C.
[7] = ODCB/water, 19 wt.% acetic acid in initial aqueous phase, 22 wt.% chlorophthalic acid, 60° C.
[8] = ODCB/water, 22 wt.% chlorophthalic acid in aqueous phase, 60° C., no acetic acid
[9] = ODCB/water, 23 wt.% chlorophthalic acid in aqueous phase, 22° C., no acetic acid
[10] = ODCB/water, 26 wt.% acetic acid in initial aqueous phase, 22 wt.% chlorophthalic acid, 22° C.
[11] = ODCB/water, 35 wt.% acetic acid in initial aqueous phase, 22 wt.% chlorophthalic acid, 22° C.
[12] = ODCB/water, 35 wt.% chlorophthalic acid in aqueous phase, 22° C., no acetic acid
[13] = ODCB/water, 35 wt.% chlorophthalic acid in aqueous phase, 60° C., no acetic acid
[14] = toluene/water, 12 wt.% chlorophthalic acid in aqueous phase, 22° C., no acetic acid
[15] = toluene/water, 17 wt.% acetic acid in initial aqueous phase, 22 wt.% chlorophthalic acid, 22° C.
[16] = toluene/water, 22 wt.% chlorophthalic acid in aqueous phase, 60° C., no acetic acid
[17] = toluene/water, 23 wt.% chlorophthalic acid in aqueous phase, 22° C., no acetic acid
[18] = toluene/water, 26 wt.% acetic acid in initial aqueous phase, 22 wt.% chlorophthalic acid, 22° C.
[19] = toluene/water, 35 wt.% chlorophthalic acid in aqueous phase, 22° C., no acetic acid
[20] = toluene/water, 35 wt.% chlorophthalic acid in aqueous phase, 60° C., no acetic acid
[21] = toluene/water, 36 wt.% acetic acid in initial aqueous phase, 22 wt.% chlorophthalic acid, 22° C.
[22] = xylene/water, 12 wt.% chlorophthalic acid in aqueous phase, 22° C., no acetic acid
[23] = xylene/water, 23 wt.% chlorophthalic acid in aqueous phase, 22° C., no acetic acid
[24] = xylene/water, 35 wt.% chlorophthalic acid in aqueous phase, 22° C., no acetic acid

4- and 7-chlorophthalide [chlorophthalides]
K values ([1]; ODCB/water, 5.5 wt.% chlorophthalic acid in aqueous phase, 22° C., no acetic acid): 1.1
beta values ([1]; ODCB/water, 5.5 wt.% chlorophthalic acid in aqueous phase, 22° C., no acetic acid, chlorophthalides vs chlorophthalic acids): 400
K values [1, 3]: 2.3
beta values [1, 3]: 200
K values [1, 4]: 3.1
beta values [1, 4]: 600
K values [1, 5]: 1.8
beta values [1, 5]: 800
K values [1, 6]: 2.2
beta values [1, 6]: 200
K values [1, 7]: 2.5
beta values [1, 7]: 300
K values [1, 8]: 2.8
beta values [1, 8]: 800
K values [1, 9]: 2.2
beta values [1, 9]: 300
K values [1, 10]: 1.9
beta values [1, 10]: 100
K values ([1]; ODCB/water, 29 wt.% acetic acid in initial aqueous phase, 22 wt.% chlorophthalic acid, 60° C.): 2.3
K values [1, 11]: 1.7
beta values [1, 11]: 100
K values [1, 12]: 1.4
beta values [1, 12]: 260
K values [1, 13]: 1.7
beta values [1, 13]: 800
beta values ([1]; ODCB/water, 37 wt.% acetic acid in initial aqueous phase, 22 wt.% chlorophthalic acid, 60° C.): 100
values for K ([1]; acetic acid 0-35 wt.% based on the weight of the water, 22 wt.% solids): 1.7-2.6
selectivity numbers for chlorophthalic acids and chlorophthalide ([1]; o-dichlorobenzene, chlorophthalic acids about 20 wt.%, chlorophthalide about 0.6%): ~500
selectivity numbers for chlorophthalic acids and chlorophthalide ([1]; toluene and xylene, chlorophthalic acids about 20 wt.%, chlorophthalide about 0.6%): 4000-5000
values of K ([1]; toluene, xylene and o-dichlorobenzene, chlorophthalic acids about 20 wt.%, chlorophthalide about 0.6%): 1.5-2.5
K values ([1]; toluene/water, 6 wt.% chlorophthalic acid in aqueous phase, 22° C., no acetic acid): 1.8
beta values ([1]; toluene/water, 6 wt.% chlorophthalic acid in aqueous phase, 22° C., no acetic acid, chlorophthalides vs chlorophthalic acids): 800
beta values ([1]; toluene/water, 10 wt.% acetic acid in initial aqueous phase, 22 wt.% chlorophthalic acid, 60° C.): 900
K values [1, 14]: 2.6
beta values [1, 14]: 2500
K values [1, 15]: 2.5
beta values [1, 15]: 400
K values ([1]; toluene/water, 19 wt.% acetic acid in initial aqueous phase, 22 wt.% chlorophthalic acid, 60° C.): 2.9
K values [1, 16]: 3.5
beta values [1, 16]: 1800
K values [1, 17]: 2.5
beta values [1, 17]: 3900
K values [1, 18]: 2.2
beta values [1, 18]: 150
K values ([1]; toluene/water, 29 wt.% acetic acid in initial aqueous phase, 22 wt.% chlorophthalic acid, 60° C.): 2.4
K values [1, 19]: 1.7
beta values [1, 19]: 3400
K values [1, 20]: 2.0
beta values [1, 20]: 1400
K values [1, 21]: 1.9
beta values [1, 21]: 100
beta values ([1]; toluene/water, 38 wt.% acetic acid in initial aqueous phase, 22 wt.% chlorophthalic acid, 60° C.): 50
selectivity numbers ([1]; toluene, 0 wt.% acetic acid, 22 wt.% solids): 4000
selectivity numbers ([1]; toluene, 18 wt.% acetic acid, 22 wt.% solids): about 400
K values [1, 22]: 2.5
beta values [1, 22]: 3500
K values [1, 23]: 1.8
beta values [1, 23]: 4700
K values [1, 24]: 1.3
beta values [1, 24]: 4200
beta values ([2]; ODCB/water, 29 wt.% acetic acid in initial aqueous phase): 150
K values ([2]; ODCB/water, 37 wt.% acetic acid in initial aqueous phase): 1.7
K values ([2]; toluene/water, 10 wt.% acetic acid in initial aqueous phase): 3.3
beta values ([2]; toluene/water, 19 wt.% acetic acid in initial aqueous phase): 300
beta values ([2]; toluene/water, 29 wt.% acetic acid in initial aqueous phase): 150
K values ([2]; toluene/water, 38 wt.% acetic acid in initial aqueous phase): 1.6

Reference: patent publication US6670487B1, “Method for removing impurities from oxidation products” (General Electric Company, priority 2002, dated 2003)
